From patent US8741914B2, “Antiviral compounds and uses thereof” (priority 2009, dated 2014)
pEC50, pIC50: −log10 of the molar value.

Tests used:
[1] = target: T1, HCV polymerase 1A (Δ21 NS5B, H77) (Hepatitis C virus genotype 1a, UniProt P27958); test: HCV Polymerase Inhibition Assay (1a); format: biochemical
T1 construct: 20 to 50 nM Δ21 NS5B
Description: (§1) The reaction was initiated by the addition of 20 μM CTP, 20 μM ATP, 1 μM ^3H-UTP (10 mCi/μmol), 5 nM template RNA and 0.1 U/μL RNase inhibitor (RNasin, Promega), and allowed to proceed for 2 to 4 hours at room temperature. Reaction volume was 50 μL. The reaction was terminated by the addition of 1 volume of 4 mM spermine in 10 mM Tris-Cl pH 8.0, 1 mM EDTA. After incubation for at least 15 minutes at room temperature, the precipitated RNA was captured by filtering through a GF/B filter (Millipore) in a 96 well format. The filter plate was washed three times with 200 μL each of 2 mM spermine, 10 mM Tris-Cl pH 8.0, 1 mM EDTA, and 2 times with ethanol. After air-drying, 30 μL of Microscint 20 scintillation cocktail (Packard) was added to each well, and the retained cpm were determined by scintillation counting. […] Retained cpm were plotted vs. inhibitor concentration and fit to equation 1 using non-linear regression (ref. 1) to obtain the IC50 values: Retained cpm=A[sqrt{(IC50+It−Et)^2+4*IC50*Et}−(IC50+It−Et)] (equation 1) where A=Vmax[S]/2(Km+[S]); It=total inhibitor concentration and Et=total active concentration of enzyme.
(§2) Ref. Morrison, J. F. and S. R. Stone. 1985. Approaches to the study and analysis of the inhibition of enzymes by slow- and tight-binding inhibitors. Comments Mol. Cell. Biophys. 2: 347-368.
(§3) The sequence of the template RNA used was: 5′-[…] […] […] […] […] […] […] […] […] […] […] […] […] […] […] […] […]-3′ (SEQ ID NO: 1).

[2] = target: T2, HCV polymerase 1B (Δ21 NS5B, BK) (Hepatitis C virus genotype 1b, UniProt P26663); test: HCV Polymerase Inhibition Assay (1b); format: biochemical
T2 construct: 20 to 50 nM Δ21 NS5B
Description: as §1, §2, §3

[3] = test system: genotype 1b-Con1 subgenomic replicon cell line; test: HCV Polymerase Replicon Assay (genotype 1b-Con1); format: cell-based; details: Hepatitis C virus, 72 h; 1b-Con1 replicon, luciferase reporter, 5% FBS, three days
[4] = test system: genotype 1a-H77 subgenomic replicon cell line; test: HCV Polymerase Replicon Assay (genotype 1a-H77); format: cell-based; details: Hepatitis C virus, 72 h; 1a-H77 replicon, luciferase reporter, 5% FBS, three days

T2 sequence (P26663 2420-2989, stated change not applied): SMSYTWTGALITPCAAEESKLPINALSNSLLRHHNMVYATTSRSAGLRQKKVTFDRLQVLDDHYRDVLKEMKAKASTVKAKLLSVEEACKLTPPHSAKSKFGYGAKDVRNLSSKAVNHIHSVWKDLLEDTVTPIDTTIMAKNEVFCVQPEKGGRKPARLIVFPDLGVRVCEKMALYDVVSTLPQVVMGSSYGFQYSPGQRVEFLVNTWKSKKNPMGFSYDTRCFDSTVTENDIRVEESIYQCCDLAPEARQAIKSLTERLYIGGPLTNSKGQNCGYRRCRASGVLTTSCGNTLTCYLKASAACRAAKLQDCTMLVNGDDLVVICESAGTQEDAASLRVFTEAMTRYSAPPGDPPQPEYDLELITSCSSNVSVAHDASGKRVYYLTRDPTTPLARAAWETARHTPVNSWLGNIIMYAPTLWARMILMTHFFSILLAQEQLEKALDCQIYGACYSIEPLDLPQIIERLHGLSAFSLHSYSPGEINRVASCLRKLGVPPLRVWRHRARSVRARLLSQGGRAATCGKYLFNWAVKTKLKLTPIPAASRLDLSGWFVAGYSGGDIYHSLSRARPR
T1 sequence (P27958 2421-2990, stated change not applied): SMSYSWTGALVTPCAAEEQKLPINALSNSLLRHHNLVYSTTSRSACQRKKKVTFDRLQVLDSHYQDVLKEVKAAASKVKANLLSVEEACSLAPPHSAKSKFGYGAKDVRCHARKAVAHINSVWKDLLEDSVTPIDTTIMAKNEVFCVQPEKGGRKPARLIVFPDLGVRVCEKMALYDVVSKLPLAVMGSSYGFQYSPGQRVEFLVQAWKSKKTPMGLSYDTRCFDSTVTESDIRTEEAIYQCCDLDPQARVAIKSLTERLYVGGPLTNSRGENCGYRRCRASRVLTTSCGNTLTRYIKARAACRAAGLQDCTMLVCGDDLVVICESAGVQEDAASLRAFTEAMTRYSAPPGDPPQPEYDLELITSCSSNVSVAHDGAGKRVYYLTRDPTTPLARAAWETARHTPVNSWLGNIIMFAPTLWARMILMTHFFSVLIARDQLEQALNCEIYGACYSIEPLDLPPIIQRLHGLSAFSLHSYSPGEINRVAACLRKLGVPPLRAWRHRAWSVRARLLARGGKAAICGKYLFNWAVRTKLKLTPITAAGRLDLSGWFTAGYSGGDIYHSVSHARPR

CC1(C)CC(=O)Oc2c1cc(N1CCC(=O)NC1=O)c1ccccc21 [Compound 4, 1-(4,4-dimethyl-2-oxo-3,4-dihydro-2H-benzo[h]chromen-6-yl)dihydropyrimidine-2,4(1H,3H)-dione]
pIC50 [1]: < 6.00 | pIC50 [2]: 6.00 to 7.00

CC1(C)COc2c(-c3ccc4cc(NS(C)(=O)=O)ccc4c3)cc(-n3ccc(=O)[nH]c3=O)cc21 [Compound 3, N-(6-(5-(2,4-dioxo-3,4-dihydropyrimidin-1(2H)-yl)-3,3-dimethyl-2,3-dihydrobenzofuran-7-yl)naphthalen-2-yl)methanesulfonamide]
pEC50 [3]: 7.00 to 8.00 | pIC50 [1]: > 8.00 | pEC50 [4]: 6.00 to 7.00 | pIC50 [2]: 7.00 to 8.00

COc1c(C(C)(C)C)cc(-n2ccc(=O)[nH]c2=O)c2ccc(-c3ccc(NS(C)(=O)=O)cc3)nc12 [Compound 2, N-(4-(7-tert-butyl-5-(2,4-dioxo-3,4-dihydropyrimidin-1(2H)-yl)-8-methoxyquinolin-2-yl)phenyl)methanesulfonamide]
pIC50 [1]: < 6.00 | pIC50 [2]: < 6.00

CC(C)(C)c1cc(-n2ccc(=O)[nH]c2=O)cc2c(Nc3cc(CNS(C)(=O)=O)cs3)ncnc12 [Compound 7, N-((5-(8-tert-butyl-6-(2,4-dioxo-3,4-dihydropyrimidin-1(2H)-yl)quinazolin-4-ylamino)thiophen-3-yl)methyl)methanesulfonamide]
pEC50 [3]: 6.00 to 7.00 | pIC50 [1]: 7.00 to 8.00 | pEC50 [4]: < 6.00 | pIC50 [2]: > 8.00

COc1c(C(C)(C)C)cc(-n2ccc(=O)[nH]c2=O)c2cccnc12 [Compound 1, 1-(7-tert-butyl-8-methoxyquinolin-5-yl)pyrimidine-2,4(1H,3H)-dione]
pEC50 [3]: ≥ 8.00 | pIC50 [1]: 7.00 to 8.00 | pEC50 [4]: 6.00 to 7.00 | pIC50 [2]: 7.00 to 8.00

CC(C)(C)c1cc(-n2ccc(=O)[nH]c2=O)cc2c(Nc3ccc(NS(C)(=O)=O)cc3)ncnc12 [Compound 5, N-(4-(8-tert-butyl-6-(2,4-dioxo-3,4-dihydropyrimidin-1(2H)-yl)quinazolin-4-ylamino)phenyl)methanesulfonamide]
pEC50 [3]: 6.00 to 7.00 | pIC50 [1]: 7.00 to 8.00 | pEC50 [4]: < 6.00 | pIC50 [2]: 7.00 to 8.00

CC(C)(C)c1cc(N2CCC(=O)NC2=O)cc2c(Nc3ccc(NS(C)(=O)=O)cc3)ncnc12 [Compound 6, N-(4-(8-tert-butyl-6-(2,4-dioxotetrahydropyrimidin-1(2H)-yl)quinazolin-4-ylamino)phenyl)methanesulfonamide]
pEC50 [3]: 6.00 to 7.00 | pIC50 [1]: 7.00 to 8.00 | pEC50 [4]: 6.00 to 7.00 | pIC50 [2]: 7.00 to 8.00
